This assay concerns the target NLRP3 (Homo sapiens, UniProt Q96P20). Nature of the assay: THP-1 cells pyroptosis assay. The class given is cell-based. Further details: Seed THP-1 cells (25,000 cells/well) containing 1.0 μg/ml LPS; host or cells: THP-1 cells, LPS-primed, nigericin-stimulated. The settings on record: 1.0 μg/ml LPS, nigericin 5 μM, resazurin readout. The text has this:
It is well established that the activation of NLRP3 leads to cell pyroptosis and this feature plays an important part in the manifestation of clinical disease (Yan-gang Liu et al., Cell Death & Disease, 2017, 8(2), e2579; Alexander Wree et al., Hepatology, 2014, 59(3), 898-910; Alex Baldwin et al., Journal of Medicinal Chemistry, 2016, 59(5), 1691-1710; Ema Ozaki et al., Journal of Inflammation Research, 2015, 8, 15-27; Zhen Xie & Gang Zhao, Neuroimmunology Neuroinflammation, 2014, 1(2), 60-65; Mattia Cocco et al., Journal of Medicinal Chemistry, 2014, 57(24), 10366-10382; T. Satoh et al., Cell Death & Disease, 2013, 4, e644). Therefore, it is anticipated that inhibitors of NLRP3 will block pyroptosis, as well as the release of pro-inflammatory cytokines (e.g. IL-1β) from the cell.
THP-1 cells (ATCC #TIB-202) were grown in RPMI containing L-glutamine (Gibco #11835) supplemented with 1 mM sodium pyruvate (Sigma #S8636) and penicillin (100 units/ml)/streptomycin (0.1 mg/ml) (Sigma #P4333) in 10% Fetal Bovine Serum (FBS) (Sigma #F0804). The cells were routinely passaged and grown to confluency (˜10^6 cells/ml). On the day of the experiment, THP-1 cells were harvested and resuspended into RPMI medium (without FBS). The cells were then counted and viability (>90%) checked by Trypan blue (Sigma #T8154). Appropriate dilutions were made to give a concentration of 625,000 cells/ml. To this diluted cell solution was added LPS (Sigma #L4524) to give a 1 μg/ml Final Assay Concentration (FAC). 40 μl of the final preparation was aliquoted into each well of a 96-well plate. The plate thus prepared was used for compound screening.
The following method step-by-step assay was followed for compound screening. • 1. Seed THP-1 cells (25,000 cells/well) containing 1.0 μg/ml LPS in 40 μl of RPMI medium (without FBS) in 96-well, black walled, clear bottom cell culture plates coated with poly-D-lysine (VWR #734-0317) • 2. Add […] compound (8 points half-log dilution, with 10 μM top dose) or vehicle (DMSO 0.1% FAC) to the appropriate wells • 3. Incubate for 3 hrs at 37° C. in 5% CO2 • 4. Add 5 μl nigericin (Sigma #N7143) (FAC 5 μM) to all wells • 5. Incubate for 1 hr at 37° C. and 5% CO2 • 6. At the end of the incubation period, spin plates at 300×g for 3 mins and remove supernatant • 7. Then add 50 μl of resazurin (Sigma #R7017) (FAC 100 μM resazurin in RPMI medium without FBS) and incubate plates for a further 1-2 hrs at 37° C. and 5% CO2 • 8. Plates were read in an Envision reader at Ex 560 nm and Em 590 nm • 9. IC50 data is fitted to a non-linear regression equation (log inhibitor vs response-variable slope 4-parameters)
In general terms: Resazurin is reduced to fluorescent resorufin, in cell work by metabolically active cells.
Chain of NLRP3 (Q96P20 whole entry): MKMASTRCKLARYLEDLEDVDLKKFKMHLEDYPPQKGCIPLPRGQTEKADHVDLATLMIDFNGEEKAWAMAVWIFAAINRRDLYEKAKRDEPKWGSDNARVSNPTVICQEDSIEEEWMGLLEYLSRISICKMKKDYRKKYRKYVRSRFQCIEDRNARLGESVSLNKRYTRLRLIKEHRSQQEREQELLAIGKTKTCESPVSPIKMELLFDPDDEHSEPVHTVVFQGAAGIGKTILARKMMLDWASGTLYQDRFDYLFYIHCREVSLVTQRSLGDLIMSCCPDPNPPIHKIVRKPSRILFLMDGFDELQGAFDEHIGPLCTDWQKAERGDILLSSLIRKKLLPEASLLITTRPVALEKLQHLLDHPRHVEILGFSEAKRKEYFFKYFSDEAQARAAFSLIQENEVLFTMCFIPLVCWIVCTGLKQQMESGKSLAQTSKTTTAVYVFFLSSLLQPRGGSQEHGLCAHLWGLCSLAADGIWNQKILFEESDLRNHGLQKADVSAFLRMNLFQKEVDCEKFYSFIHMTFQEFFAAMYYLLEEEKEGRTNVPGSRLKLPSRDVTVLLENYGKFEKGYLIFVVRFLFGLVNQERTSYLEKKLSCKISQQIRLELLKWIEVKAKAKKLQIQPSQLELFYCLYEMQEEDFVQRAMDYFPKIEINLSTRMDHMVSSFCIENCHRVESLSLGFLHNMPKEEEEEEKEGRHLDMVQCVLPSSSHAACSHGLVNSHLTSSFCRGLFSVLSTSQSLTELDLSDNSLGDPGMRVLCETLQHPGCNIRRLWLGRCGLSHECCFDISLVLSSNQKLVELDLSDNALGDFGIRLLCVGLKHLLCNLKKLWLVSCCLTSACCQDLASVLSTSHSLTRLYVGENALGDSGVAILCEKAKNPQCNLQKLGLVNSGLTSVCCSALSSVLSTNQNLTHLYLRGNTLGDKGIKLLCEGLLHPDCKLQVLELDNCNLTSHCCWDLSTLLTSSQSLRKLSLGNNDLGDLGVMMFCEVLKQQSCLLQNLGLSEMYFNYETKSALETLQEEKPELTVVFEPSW
For orientation: IC50 means the point on the concentration scale where inhibition reaches its midpoint. As to `CC(C)NC(=O)c1cc(S(=O)(=O)NC(=O)Nc2c3c(cc4c2CCC4)CCC3)nn1C` [Example 46, 3-(N-((1,2,3,5,6,7-Hexahydro-s-indacen-4-yl)carbamoyl)sulfamoyl)-N-isopropyl-1-methyl-1H-pyrazole-5-carboxamide], the IC50 fell in the range of 2560 to 10000 nM.
On to `CCN(CC)C(=O)c1cc(S(=O)(=O)NC(=O)Nc2c(C(C)C)cc(F)cc2C(C)C)nn1C` [Example 48, N,N-Diethyl-3-(N-((4-fluoro-2,6-diisopropylphenyl)carbamoyl)sulfamoyl)-1-methyl-1H-pyrazole-5-carboxamide], for which the IC50 fell in the range of 160 to 640 nM.
For `CCN(CC)C(=O)c1cc(S(=O)(=O)NC(=O)Nc2c(C(C)C)cccc2C(C)C)nn1C` [Example 57, 3-(N-((2,6-Diisopropylphenyl)carbamoyl)sulfamoyl)-N,N-diethyl-1-methyl-1H-pyrazole-5-carboxamide], the IC50 lay within 640 to 2560 nM.
Regarding `Cn1nc(S(=O)(=O)NC(=O)Nc2c3c(cc4c2CCC4)CCC3)cc1C(=O)N1CCCC1` [Example 59, N-((1,2,3,5,6,7-Hexahydro-s-indacen-4-yl)carbamoyl)-1-methyl-5-(pyrrolidine-1-carbonyl)-1H-pyrazole-3-sulfonamide], the IC50 lay within 640 to 2560 nM.
With `Cn1nc(S(=O)(=O)NC(=O)Nc2c3c(cc4c2CCC4)CCC3)cc1C(=O)N1CC(F)C1` [Example 61, 5-(3-Fluoroazetidine-1-carbonyl)-N-((1,2,3,5,6,7-hexahydro-s-indacen-4-yl)carbamoyl)-1-methyl-1H-pyrazole-3-sulfonamide] the figure was 640 to 2560 nM; with `CC(C)c1cccc(C(C)C)c1NC(=O)NS(=O)(=O)c1cc(C(=O)N2CCCC2)n(C)n1` [Example 63, N-((2,6-Diisopropylphenyl)carbamoyl)-1-methyl-5-(pyrrolidine-1-carbonyl)-1H-pyrazole-3-sulfonamide], 640 to 2560 nM; with `CNC(=O)c1cc(S(=O)(=O)NC(=O)Nc2c3c(cc4c2CCC4)CCC3)nn1C` [Example 66, 3-(N-((1,2,3,5,6,7-Hexahydro-s-indacen-4-yl)carbamoyl)sulfamoyl)-N,1-dimethyl-1H-pyrazole-5-carboxamide], 640 to 2560 nM.
In turn, `CC(C)c1cccc(C(C)C)c1NC(=O)NS(=O)(=O)c1cc(C(=O)N(C)CCO)n(C)n1` [Example 75, 3-(N-((2,6-Diisopropylphenyl)carbamoyl)sulfamoyl)-N-(2-hydroxyethyl)-N,1-dimethyl-1H-pyrazole-5-carboxamide] had an IC50 of 640 to 2560 nM.
In turn, `Cn1nc(S(=O)(=O)NC(=O)Nc2c3c(cc4c2CCC4)CCC3)cc1C(=O)NCCO` [Example 76, 3-(N-((1,2,3,5,6,7-Hexahydro-s-indacen-4-yl)carbamoyl)sulfamoyl)-N-(2-hydroxyethyl)-1-methyl-1H-pyrazole-5-carboxamide] came in with an IC50 of 2560 to 10000 nM.
With `COCCNC(=O)c1cc(S(=O)(=O)NC(=O)Nc2c3c(cc4c2CCC4)CCC3)nn1C` [Example 77, 3-(N-((1,2,3,5,6,7-Hexahydro-s-indacen-4-yl)carbamoyl)sulfamoyl)-N-(2-methoxyethyl)-1-methyl-1H-pyrazole-5-carboxamide] the figure was 2560 to 10000 nM.

These data come from patent US20210122739A1, “NOVEL SULFONAMIDE CARBOXAMIDE COMPOUNDS” (Inflazome Limited, priority 2017, published 2021).
